Measured values: the NIST ThermoML archive (doi:10.1021/je034022n)
± gives the expanded uncertainty stated by the source.

Conditions: 101.33 kPa, Liquid

Row | SMILES | mass density (298.15 K) [kg/m3] | speed of sound (298.15 K) [m/s] | mass density (303.15 K) [kg/m3] | mass density (308.15 K) [kg/m3] | speed of sound (308.15 K) [m/s] | mass density (313.15 K) [kg/m3]
1 | Cc1ccc(C)cc1 [1,4-dimethylbenzene] | 856.62 ± 1.4 | 1308 ± 6 | 852.25 ± 1.4 | 847.88 ± 1.5 | 1276 ± 6 | 843.64 ± 1.5
2 | CCCCOCCO [2-butoxyethan-1-ol] | 896.25 ± 1.2 | 1304 ± 6 | 892.03 ± 1.2 | 888.91 ± 1.2 | 1285 ± 6 | 883.4 ± 1.2
3 | c1ccccc1 [benzene] | 873.61 ± 1.3 | 1299 ± 6 | 868.29 ± 1.3 | 862.96 ± 1.4 | 1260 ± 5 | 857.97 ± 1.4
4 | C=C(C)C(=O)OC [methyl methacrylate] | 937.63 ± 0.92 | 1181 ± 5 | 931.74 ± 0.96 | 925.74 ± 1 | 1153 ± 5 | 920.26 ± 1
5 | Cc1ccccc1 [toluene] | 862.2 ± 1.4 | 1304 ± 6 | 857.55 ± 1.4 | 852.86 ± 1.4 | 1262 ± 5 | 848.16 ± 1.5
